According to patent publication US20070128217A1 (priority 2003, published 2007):

What was measured:
[1] = tested on: rabbit serum obtained by immunizing a rabbit with the SARS-CoV strain Frankfurt 1; format: binding; design: Binding of a rabbit serum to linear peptides / Binding of a rabbit serum to looped peptides / Rabbit serum linear peptides / Rabbit serum looped peptides / Binding of a rabbit serum to linear peptides of protein N of SARS-CoV Urbani (Rabbit serum linear peptides) / Binding of a rabbit serum to looped/cyclic peptides of protein N of SARS-CoV Urbani (Rabbit serum looped peptides): unit not given here
[2] = tested on: control sera (pooled serum of ten healthy LUMC hospital workers; commercial negative donor pooled serum from the Dutch bloodbank); format: binding, human; design: Binding of Control serum LUMC to linear peptides / Binding of Control serum Blood-bank to linear peptides / Binding of Control serum LUMC to looped peptides / Binding of Control Serum Blood-Bank to Looped peptides / Binding of Control serum LUMC to linear peptides of the protein M of SARS-CoV Urbani / Binding of Control serum Blood-bank to linear peptides of the protein M of SARS-CoV Urbani / Binding of Control serum LUMC to looped peptides of the protein M of SARS-CoV Urbani / Binding of Control Serum Blood-Bank to Looped peptides of the protein M of SARS-CoV Urbani: unit not given here
[3] = tested on: antibodies in sera from SARS patients (sera 1a, 1b, 2, 6, 37, 62, London, SARS-yellow, SARS-green); format: binding, human; design: Binding of serum 6 to linear peptides of protein X1 of SARS-CoV Urbani / Binding of serum 37 to linear peptides of protein X1 of SARS-CoV Urbani / Binding of serum 6 to looped/cyclic peptide (PEPSCAN-ELISA) / Binding of serum 37 to looped/cyclic peptide (PEPSCAN-ELISA) / Binding of serum 37 to looped/cyclic peptides of protein X1 of SARS-CoV Urbani / Binding of serum 6 to linear peptides of protein X2 / Binding of serum 37 to linear peptides of protein X2 / Binding of serum 37 to looped/cyclic peptides of protein X2 of SARS-CoV Urbani / Binding of serum 6 to linear peptides of protein M of SARS-CoV Urbani / Binding of serum 37 to linear peptides of protein M of SARS-CoV Urbani / Binding of serum 6 to looped/cyclic peptides of protein M of SARS-CoV Urbani / Binding of serum 37 to looped/cyclic peptides of protein M of SARS-CoV Urbani / Binding of serum 6 to linear peptides of protein X3 of SARS-CoV Urbani / Binding of serum 37 to linear peptides of protein X3 of SARS-CoV Urbani / Binding of serum 37 to looped/cyclic peptides of protein X3 of SARS-CoV Urbani / Binding of serum 6 to linear peptides of protein X4 of SARS-CoV Urbani / Binding of serum 37 to linear peptides of protein X4 of SARS-CoV Urbani / Binding of serum 37 to looped/cyclic peptides of protein X4 of SARS-CoV Urbani / Binding of serum 6 to linear peptides of protein X5 of SARS-CoV Urbani / Binding of serum 37 to linear peptides of protein X5 of SARS-CoV Urbani / Binding of serum 37 to looped/cyclic peptides of protein X5 of SARS-CoV Urbani / Binding of serum 6 to linear peptides of protein N of SARS-CoV Urbani / Binding of serum 37 to linear peptides of protein N of SARS-CoV Urbani / Binding of serum 6 to linear peptide (PEPSCAN-ELISA) / Binding of serum 1a to looped/cyclic peptides of protein N of SARS-CoV Urbani / Binding of serum 1b to looped/cyclic peptides of protein N of SARS-CoV Urbani / Binding of serum 2 to looped/cyclic peptides of protein N of SARS-CoV Urbani / Binding of serum 6 to looped/cyclic peptides of protein N of SARS-CoV Urbani / Binding of serum 37 to looped/cyclic peptides of protein N of SARS-CoV Urbani / Binding of serum 62 to looped/cyclic peptides of protein N of SARS-CoV Urbani / Binding of serum London to looped/cyclic peptides of protein N of SARS-CoV Urbani / Binding of serum SARS-green to looped/cyclic peptides of protein N of SARS-CoV Urbani: unit not given here

Sequence: FRLFARTRSMWSFNP
- Rabbit serum linear peptides [1]: 0.2
- Rabbit serum looped peptides [1]: 0.2
- Binding of Control Serum Blood-Bank to Looped peptides of the protein M of SARS-CoV Urbani [2]: 0.8
- Binding of Control serum Blood-bank to linear peptides of the protein M of SARS-CoV Urbani [2]: 0.8
- Binding of Control serum LUMC to linear peptides of the protein M of SARS-CoV Urbani [2]: 0.8
- Binding of Control serum LUMC to looped peptides of the protein M of SARS-CoV Urbani [2]: 0.6
- Binding of serum 1a to linear peptides of protein M of SARS-CoV Urbani [3]: 0.8
- Binding of serum 1a to looped/cyclic peptides of protein M of SARS-CoV Urbani [3]: 0.7
- Binding of serum 1b to linear peptides of protein M of SARS-CoV Urbani [3]: 0.5
- Binding of serum 1b to looped/cyclic peptides of protein M of SARS-CoV Urbani [3]: 0.5
- Binding of serum 2 to linear peptides of protein M of SARS-CoV Urbani [3]: 0.6
- Binding of serum 2 to looped/cyclic peptides of protein M of SARS-CoV Urbani [3]: 0.6
- Binding of serum 6 to linear peptides of protein M of SARS-CoV Urbani [3]: 0.5
- Binding of serum 6 to looped/cyclic peptides of protein M of SARS-CoV Urbani [3]: 0.8
- Binding of serum 37 to linear peptides of protein M of SARS-CoV Urbani [3]: 0.5
- Binding of serum 37 to looped/cyclic peptides of protein M of SARS-CoV Urbani [3]: 0.6
- Binding of serum 62 to linear peptides of protein M of SARS-CoV Urbani [3]: 0.5
- Binding of serum 62 to looped/cyclic peptides of protein M of SARS-CoV Urbani [3]: 0.6
- Binding of serum London to linear peptides of protein M of SARS-CoV Urbani [3]: 0.4
- Binding of serum London to looped/cyclic peptides of protein M of SARS-CoV Urbani [3]: 0.3
- Binding of serum SARS-green to linear peptides of protein M of SARS-CoV Urbani [3]: 0.6
- Binding of serum SARS-green to looped/cyclic peptides of protein M of SARS-CoV Urbani [3]: 0.3
- Binding of serum SARS-yellow to linear peptides of protein M of SARS-CoV Urbani [3]: 0.2
- Binding of serum SARS-yellow to looped/cyclic peptides of protein M of SARS-CoV Urbani [3]: 0.5

Sequence: FTEVYYQLESTQITT
- Binding of a rabbit serum to linear peptides [1]: 0.1
- Binding of a rabbit serum to looped peptides [1]: 0.5
- Binding of Control Serum Blood-Bank to Looped peptides [2]: 0.6
- Binding of Control serum Blood-bank to linear peptides [2]: 0.6
- Binding of Control serum LUMC to linear peptides [2]: 0.5
- Binding of Control serum LUMC to looped peptides [2]: 0.6
- Binding of serum 1a to linear peptides of protein X1 of SARS-CoV Urbani [3]: 0.8
- Binding of serum 1a to looped/cyclic peptides of protein X1 of SARS-CoV Urbani [3]: 0.5
- Binding of serum 1b to linear peptides of protein X1 of SARS-CoV Urbani [3]: 0.7
- Binding of serum 1b to looped/cyclic peptides of protein X1 of SARS-CoV Urbani [3]: 0.5
- Binding of serum 2 to linear peptides of protein X1 of SARS-CoV Urbani [3]: 0.5
- Binding of serum 2 to looped/cyclic peptides of protein X1 of SARS-CoV Urbani [3]: 0.4
- Binding of serum 6 to linear peptides of protein X1 of SARS-CoV Urbani [3]: 0.5
- Binding of serum 6 to looped/cyclic peptides of protein X1 of SARS-CoV Urbani [3]: 0.4
- Binding of serum 37 to linear peptides of protein X1 of SARS-CoV Urbani [3]: 0.7
- Binding of serum 37 to looped/cyclic peptides of protein X1 of SARS-CoV Urbani [3]: 0.7
- Binding of serum 62 to linear peptides of protein X1 of SARS-CoV Urbani [3]: 0.7
- Binding of serum 62 to looped/cyclic peptides of protein X1 of SARS-CoV Urbani [3]: 0.5
- Binding of serum London to linear peptides of protein X1 of SARS-CoV Urbani [3]: 0.3
- Binding of serum London to looped/cyclic peptides of protein X1 of SARS-CoV Urbani [3]: 0.2
- Binding of serum SARS-green to linear peptides of protein X1 of SARS-CoV Urbani [3]: 0.5
- Binding of serum SARS-green to looped/cyclic peptides of protein X1 of SARS-CoV Urbani [3]: 0.3
- Binding of serum SARS-yellow to linear peptides of protein X1 of SARS-CoV Urbani [3]: 0.5
- Binding of serum SARS-yellow to looped/cyclic peptides of protein X1 of SARS-CoV Urbani [3]: 0.4

Sequence: FTSCELYHYQECVRG
- Rabbit serum linear peptides [1]: 0.4
- Rabbit serum looped peptides [1]: 0.3
- Binding of Control Serum Blood-Bank to Looped peptides [2]: 0.8
- Binding of Control serum Blood-bank to linear peptides [2]: 0.7
- Binding of Control serum LUMC to linear peptides [2]: 0.7
- Binding of Control serum LUMC to looped peptides [2]: 0.8
- Binding of serum 1a to linear peptides of protein X4 of SARS-CoV Urbani [3]: 0.8
- Binding of serum 1a to looped/cyclic peptides of protein X4 of SARS-CoV Urbani [3]: 0.8
- Binding of serum 1b to linear peptides of protein X4 of SARS-CoV Urbani [3]: 0.7
- Binding of serum 1b to looped/cyclic peptides of protein X4 of SARS-CoV Urbani [3]: 0.7
- Binding of serum 2 to linear peptides of protein X4 of SARS-CoV Urbani [3]: 0.5
- Binding of serum 2 to looped/cyclic peptides of protein X4 of SARS-CoV Urbani [3]: 0.6
- Binding of serum 6 to linear peptides of protein X4 of SARS-CoV Urbani [3]: 0.9
- Binding of serum 6 to looped/cyclic peptides of protein X4 of SARS-CoV Urbani [3]: 0.6
- Binding of serum 37 to linear peptides of protein X4 of SARS-CoV Urbani [3]: 0.8
- Binding of serum 37 to looped/cyclic peptides of protein X4 of SARS-CoV Urbani [3]: 0.8
- Binding of serum 62 to linear peptides of protein X4 of SARS-CoV Urbani [3]: 0.8
- Binding of serum 62 to looped/cyclic peptides of protein X4 of SARS-CoV Urbani [3]: 0.7
- Binding of serum London to linear peptides of protein X4 of SARS-CoV Urbani [3]: 0.9
- Binding of serum London to looped/cyclic peptides of protein X4 of SARS-CoV Urbani [3]: 0.3
- Binding of serum SARS-green to linear peptides of protein X4 of SARS-CoV Urbani [3]: 0.5
- Binding of serum SARS-green to looped/cyclic peptides of protein X4 of SARS-CoV Urbani [3]: 0.6
- Binding of serum SARS-yellow to linear peptides of protein X4 of SARS-CoV Urbani [3]: 0.3
- Binding of serum SARS-yellow to looped/cyclic peptides of protein X4 of SARS-CoV Urbani [3]: 0.5
